# Laboratory results as given in patent US20230139171A1 (SITA Information Networking Computing UK Limited, priority 2019, published 2023).
# Columns and labels:
# human TLR7 = biological target: T1, human TLR7 (Homo sapiens, UniProt Q9NYK1); assay: TLR7 inhibition reporter assay (HEK-Blue cells, SEAP reporter, gardiquimod stimulation); format: cell-based; settings: HEK-Blue cells overexpressing human TLR7, SEAP reporter, gardiquimod 7.5 μM; read-out: TLR7 IC50
# T1 construct: host or cells: HEK-Blue cells
# T1 sequence (Q9NYK1 27-1049): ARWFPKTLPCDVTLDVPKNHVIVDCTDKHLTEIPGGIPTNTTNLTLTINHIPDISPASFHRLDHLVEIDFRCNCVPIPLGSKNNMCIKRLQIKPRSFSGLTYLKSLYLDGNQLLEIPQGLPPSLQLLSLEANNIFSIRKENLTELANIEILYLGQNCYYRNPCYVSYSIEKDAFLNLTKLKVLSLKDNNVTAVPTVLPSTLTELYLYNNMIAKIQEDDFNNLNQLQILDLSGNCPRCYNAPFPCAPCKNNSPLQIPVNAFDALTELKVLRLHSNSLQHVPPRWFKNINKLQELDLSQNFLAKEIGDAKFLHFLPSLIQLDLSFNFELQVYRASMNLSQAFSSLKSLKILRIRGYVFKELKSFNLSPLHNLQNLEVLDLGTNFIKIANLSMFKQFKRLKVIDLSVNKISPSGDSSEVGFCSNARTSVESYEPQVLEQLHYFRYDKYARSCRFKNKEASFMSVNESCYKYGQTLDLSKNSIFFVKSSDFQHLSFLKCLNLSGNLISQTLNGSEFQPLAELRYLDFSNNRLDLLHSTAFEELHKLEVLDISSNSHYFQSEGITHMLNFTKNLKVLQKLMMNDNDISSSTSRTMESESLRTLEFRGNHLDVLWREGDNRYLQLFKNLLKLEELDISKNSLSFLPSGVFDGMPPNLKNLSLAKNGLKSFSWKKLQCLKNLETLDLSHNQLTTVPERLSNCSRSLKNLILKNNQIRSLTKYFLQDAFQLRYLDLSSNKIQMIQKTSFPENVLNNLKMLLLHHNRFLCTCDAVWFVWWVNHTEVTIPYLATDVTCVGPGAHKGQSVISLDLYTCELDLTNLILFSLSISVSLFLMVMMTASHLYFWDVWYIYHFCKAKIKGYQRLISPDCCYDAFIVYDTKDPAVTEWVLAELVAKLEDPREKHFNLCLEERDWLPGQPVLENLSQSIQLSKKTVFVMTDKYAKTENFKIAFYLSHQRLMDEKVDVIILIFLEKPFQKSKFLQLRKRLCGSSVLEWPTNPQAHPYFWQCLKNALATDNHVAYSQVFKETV
# Description: (§1) TLR7/8/9 Inhibition Reporter Assays
# (§2) HEK-Blue™-cells (Invivogen) overexpressing human TLR7, TLR8 or TLR9 receptors were used for screening inhibitors of these receptors using an inducible SEAP (secreted embryonic alkaline phosphatase) reporter gene under the control of the IFN-β minimal promoter fused to five NF-κB and AP-1-binding sites. Briefly, cells are seeded into Greiner 384 well plates (15000 cells per well for TLR7, 20,000 for TLR8 and 25,000 for TLR9) and then treated with test compounds in DMSO to yield a final dose response concentration range of 0.05 nM-50 μM. After a 30 minute compound pre-treatment at room temperature, the cells are then stimulated with a TLR7 ligand (gardiquimod at a final concentration of 7.5 μM), TLR8 ligand (R848 at a final concentration of 15.9 μM) or TLR9 ligand (ODN2006 at a final concentration of 5 nM) to activate NF-κB and AP-1 which induce the production of SEAP. After a 22 hour incubation at 37° C., 5% CO2, SEAP levels are determined with the addition of HEK-Blue™ Detection reagent (Invivogen), a cell culture medium that allows for detection of SEAP, according to manufacturer's specifications. The percent inhibition is determined as the % reduction in the HEK-Blue signal present in wells treated with agonist plus DMSO alone compared to wells treated with a known inhibitor.
# human TLR8 = biological target: T2, human TLR8 (Homo sapiens, UniProt Q9NR97); assay: TLR8 inhibition reporter assay (HEK-Blue cells, SEAP reporter, R848 stimulation); format: cell-based; settings: HEK-Blue cells overexpressing human TLR8, SEAP reporter, R848 15.9 μM; read-out: TLR8 IC50
# T2 construct: host or cells: HEK-Blue cells
# T2 sequence (Q9NR97 27-1041): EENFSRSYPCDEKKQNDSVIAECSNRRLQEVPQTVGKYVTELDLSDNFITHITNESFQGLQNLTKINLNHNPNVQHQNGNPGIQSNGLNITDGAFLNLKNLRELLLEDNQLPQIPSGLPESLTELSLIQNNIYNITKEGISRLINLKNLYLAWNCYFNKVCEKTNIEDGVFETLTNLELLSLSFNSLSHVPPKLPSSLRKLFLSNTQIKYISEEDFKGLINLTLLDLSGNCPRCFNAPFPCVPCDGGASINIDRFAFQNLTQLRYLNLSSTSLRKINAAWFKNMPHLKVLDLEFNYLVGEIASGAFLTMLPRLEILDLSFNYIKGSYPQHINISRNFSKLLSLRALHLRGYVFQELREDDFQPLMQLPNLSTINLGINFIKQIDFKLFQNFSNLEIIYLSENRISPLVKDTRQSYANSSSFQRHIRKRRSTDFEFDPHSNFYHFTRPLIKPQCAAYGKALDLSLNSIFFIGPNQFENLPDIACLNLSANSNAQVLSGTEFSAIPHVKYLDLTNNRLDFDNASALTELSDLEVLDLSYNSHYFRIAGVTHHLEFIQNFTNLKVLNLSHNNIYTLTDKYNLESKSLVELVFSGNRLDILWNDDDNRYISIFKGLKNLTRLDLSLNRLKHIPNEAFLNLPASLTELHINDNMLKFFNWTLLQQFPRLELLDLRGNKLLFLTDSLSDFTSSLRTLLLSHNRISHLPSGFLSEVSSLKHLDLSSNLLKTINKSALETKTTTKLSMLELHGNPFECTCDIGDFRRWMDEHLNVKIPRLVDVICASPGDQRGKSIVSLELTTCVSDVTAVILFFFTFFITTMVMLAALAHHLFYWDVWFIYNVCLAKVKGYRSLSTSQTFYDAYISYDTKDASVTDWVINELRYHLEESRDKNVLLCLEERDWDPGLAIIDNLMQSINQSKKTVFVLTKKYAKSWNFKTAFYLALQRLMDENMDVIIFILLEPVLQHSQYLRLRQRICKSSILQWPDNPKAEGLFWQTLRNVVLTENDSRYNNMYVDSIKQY
# Description: as §1, §2
Structure (SMILES),IC50 (human TLR7),IC50 (human TLR8)
"Cc1c(-c2[nH]c3sc(N4CCN(CC(C)(C)O)C[C@@H]4C)nc3c2C(C)C)cn2ncnc2c1C [Example 345, (S)-1-(4-(5-(7,8-dimethyl-[1,2,4]triazolo[1,5-a]pyridin-6-yl)-6-isopropyl-4H-pyrrolo[3,2-d]thiazol-2-yl)-3-methylpiperazin-1-yl)-2-methylpropan-2-ol]",23.4 nM,3.12 nM
"Cc1c(-c2[nH]c3sc(N4CCN(C(=O)C5CCS(=O)(=O)CC5)C[C@@H]4C)nc3c2C(C)C)cn2ncnc2c1C [Example 347, (S)-(4-(5-(7,8-dimethyl-[1,2,4]triazolo[1,5-a]pyridin-6-yl)-6-isopropyl-4H-pyrrolo[3,2-d]thiazol-2-yl)-3-methylpiperazin-1-yl)(1,1-dioxidotetrahydro-2H-thiopyran-4-yl)methanone]",22.9 nM,44.5 nM
"Cc1c(-c2[nH]c3sc(N4CCN(C5COC5)C[C@@H]4C)nc3c2C(C)C)cn2ncnc2c1C [Example 348, (S)-5-(7,8-dimethyl-[1,2,4]triazolo[1,5-a]pyridin-6-yl)-6-isopropyl-2-(2-methyl-4-(oxetan-3-yl)piperazin-1-yl)-4H-pyrrolo[3,2-d]thiazole]",19.1 nM,22.4 nM
Cc1c(-c2[nH]c3sc(N4CCN(C5CCC5)C[C@@H]4C)nc3c2C(C)C)cn2ncnc2c1C [Example 349],91 nM,1.85 nM
"Cc1cc(-c2[nH]c3sc(N4CCN(C(=O)CN(C)C)C[C@H]4C)nc3c2C(C)C)cn2ncnc12 [Example 360, (R)-2-(dimethylamino)-1-(4-(6-isopropyl-5-(8-methyl-[1,2,4]triazolo[1,5-a]pyridin-6-yl)-4H-pyrrolo[3,2-d]thiazol-2-yl)-3-methylpiperazin-1-yl)ethan-1-one]",1220 nM,1330 nM
"Cc1c(-c2[nH]c3sc(C(=O)NCCCN4CCCC4=O)nc3c2C(C)C)cn2ncnc2c1C [Example 371, 5-(7,8-dimethyl-[1,2,4]triazolo[1,5-a]pyridin-6-yl)-6-isopropyl-N-(3-(2-oxopyrrolidin-1-yl)propyl)-4H-pyrrolo[3,2-d]thiazole-2-carboxamide]",72.1 nM,29.4 nM
"Cc1c(-c2[nH]c3sc(C(=O)N4CCCC4)nc3c2C(C)C)cn2ncnc2c1C [Example 377, (5-(7,8-dimethyl-[1,2,4]triazolo[1,5-a]pyridin-6-yl)-6-isopropyl-4H-pyrrolo[3,2-d]thiazol-2-yl)(pyrrolidin-1-yl)methanone]",56.9 nM,18.2 nM
"Cc1c(-c2[nH]c3sc(C(=O)N4CCNC(=O)C4)nc3c2C(C)C)cn2ncnc2c1C [Example 378, 4-(5-(7,8-dimethyl-[1,2,4]triazolo[1,5-a]pyridin-6-yl)-6-isopropyl-4H-pyrrolo[3,2-d]thiazole-2-carbonyl)piperazin-2-one]",29.4 nM,12.2 nM
"Cc1c(-c2[nH]c3sc(C(=O)N4CCN(S(C)(=O)=O)CC4)nc3c2C(C)C)cn2ncnc2c1C [Example 384, (5-(7,8-dimethyl-[1,2,4]triazolo[1,5-a]pyridin-6-yl)-6-isopropyl-4H-pyrrolo[3,2-d]thiazol-2-yl)(4-(methylsulfonyl)piperazin-1-yl) methanone]",39.5 nM,20.1 nM
"Cc1c(-c2[nH]c3sc(C(N)=O)nc3c2C(C)C)cn2ncnc2c1C [Example 385, 5-(7,8-dimethyl-[1,2,4]triazolo[1,5-a]pyridin-6-yl)-6-isopropyl-4H-pyrrolo[3,2-d]thiazole-2-carboxamide]",58.8 nM,31.4 nM
"COc1cc(-c2[nH]c3sc(C(=O)NCC(F)(F)F)nc3c2C(C)C)cn2ncnc12 [Example 390, 6-isopropyl-5-(8-methoxy-[1,2,4]triazolo[1,5-a]pyridin-6-yl)-N-(2,2,2-trifluoroethyl)-4H-pyrrolo[3,2-d]thiazole-2-carboxamide]",93.6 nM,481 nM
"Cc1cc(-c2[nH]c3sc(C(N)=O)nc3c2C(C)C)cn2ncnc12 [Example 391, 6-isopropyl-5-(8-methyl-[1,2,4]triazolo[1,5-a]pyridin-6-yl)-4H-pyrrolo[3,2-d]thiazole-2-carboxamide]",102 nM,118 nM
"Cc1cc(-c2[nH]c3sc(C(=O)N4CCNC(=O)C4)nc3c2C(C)C)cn2ncnc12 [Example 392, 4-(6-isopropyl-5-(8-methyl-[1,2,4]triazolo[1,5-a]pyridin-6-yl)-4H-pyrrolo[3,2-d]thiazole-2-carbonyl)piperazin-2-one]",241 nM,404 nM
"Cc1cc(-c2[nH]c3sc(C(=O)N4CCCC4)nc3c2C(C)C)cn2ncnc12 [Example 393, (6-isopropyl-5-(8-methyl-[1,2,4]triazolo[1,5-a]pyridin-6-yl)-4H-pyrrolo[3,2-d]thiazol-2-yl)(pyrrolidin-1-yl) methanone]",77.6 nM,140 nM
"Cc1cc(-c2[nH]c3sc(C(=O)N4CCCOCC4)nc3c2C(C)C)cn2ncnc12 [Example 394, (6-isopropyl-5-(8-methyl-[1,2,4]triazolo[1,5-a]pyridin-6-yl)-4H-pyrrolo[3,2-d]thiazol-2-yl)(1,4-oxazepan-4-yl)methanone]",154 nM,529 nM
"COC1CN(C(=O)c2nc3c(C(C)C)c(-c4cc(C)c5ncnn5c4)[nH]c3s2)C1 [Example 396, (6-isopropyl-5-(8-methyl-[1,2,4]triazolo[1,5-a]pyridin-6-yl)-4H-pyrrolo[3,2-d]thiazol-2-yl)(3-methoxyazetidin-1-yl)methanone]",102 nM,53.9 nM
"Cc1cc(-c2[nH]c3sc(C(=O)NC4COC4)nc3c2C(C)C)cn2ncnc12 [Example 397, 6-isopropyl-5-(8-methyl-[1,2,4]triazolo[1,5-a]pyridin-6-yl)-N-(oxetan-3-yl)-4H-pyrrolo[3,2-d]thiazole-2-carboxamide]",221 nM,463 nM
